Values of other authors as cited in patent US20070009938A1, “Minimalist bZIP derivatives that bind to noncanonical gene regulatory sequences” (priority 2005, published 2007).

Legend:
AP-1 site = details: previously shown, Lajmi et al. 2000
CRE (ATF/CREB) site = details: previously shown, Lajmi et al. 2000

| binding to AP-1 site, DNase I footprinting (AP-1 site) | binding to CRE (ATF/CREB) site, DNase I footprinting (CRE (ATF/CREB) site) | Substance |
| --- | --- | --- |
| bind | bind | 18A: alanine-rich derivative of wt bZIP; 24 of the 27 basic-region residues are alanine (SEQ ID NO:5) (AAAAAAAAANAAAAAAARAAKAAAAAA; basic region 18A bZIP mutant peptide) |
| bind | bind | 4A: alanine-rich derivative of wt bZIP with four Ala substitutions in the GCN4 basic region (SEQ ID NO:3) (ARAAAARARNTAAARRSRARKLQRMKQ; basic region 4A bZIP mutant peptide) |
| bind | bind | 11A: alanine-rich derivative of wt bZIP with eleven Ala substitutions in the basic region, also mutated in the hinge (SEQ ID NO:4) (ARAAAARARNTAAARRSRAAKAAAAAA; basic region 11A bZIP mutant peptide) |
